The values that follow come from ChEMBL document CHEMBL1201862, “PubChem BioAssay data set” (2004).

Some test systems named below: HT-29; IGROV-1; COLO 205; 786-0; OVCAR-4; EKVX; HCT-116; CAKI-1; SK-OV-3; MOLT-4; HCT-15; CCRF-CEM; HCC 2998; SK-MEL-5; M14; HOP-92.
What all share (assay): growth of human tumour cells (NCI), 48 h

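96-well plates; 48 h exposure; 5 concentrations. Endpoints by linear interpolation between flanking doses. Not reached: highest tested concentration assigned. Abbreviation: GI50, concentration required for 50% inhibition of growth.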 Calls of active or inactive are those of the source. Rule as the data show it: active = GI50 up to about 1.1 µM and inactive = higher.

With `COc1cc(C(C)c2cc3c(cc2OCCCCOc2cc4c(cc2C(C)c2cc(OC)c(OC)c(OC)c2)OCO4)OCO3)cc(OC)c1OC` (stereo unspecified), the GI50 is 68.9 µM (inactive) in the test on HT-29; 49.9 µM (inactive) in the test with IGROV-1; > 100 µM (inactive) in the test on COLO 205; 49.2 µM (inactive) in the test on 786-0; 92.3 µM (inactive) in the test on OVCAR-4; 40.5 µM (inactive) in the test on EKVX. Further, the GI50 is 31.7 µM (inactive) in the test with HCT-116; > 100 µM (inactive) with CAKI-1; 34.4 µM (inactive) in the test on SK-OV-3; 41.4 µM (inactive) in the test with MOLT-4; 34.8 µM with HCT-15; 48.3 µM (inactive) with CCRF-CEM. The values for the GI50 in the test on HCC 2998, in the test on SK-MEL-5 and in the test with M14 were 29.5 µM (inactive), 29.1 µM (inactive) and 24.5 µM (inactive), respectively.
As to `CCC1=NC(CO)[C@H](c2ccccc2)O1` (stereo partly specified), the GI50 with HT-29, in the test with IGROV-1, in the test on COLO 205, in the test with 786-0, in the test on OVCAR-4 and in the test on EKVX was > 100 µM (inactive) each time. The GI50 in the test with HOP-92 was > 100 µM (inactive); in the test on HCT-116, > 100 µM (inactive); with CAKI-1 it was > 100 µM (inactive); with HCT-15 it was over 100 µM; in the test on SK-MEL-5 it was > 100 µM (inactive).
As to `S=c1nc2c(c[nH]1)C1c3ccccc3C2c2ccccc21`, the GI50 in the test with HT-29 is > 10 µM (inactive); in the test on IGROV-1, 69.2 µM (inactive); with COLO 205, 88.7 µM (inactive); in the test with 786-0, > 100 µM (inactive); in the test with OVCAR-4 it was 39.2 µM (inactive); in the test with EKVX it was 38.5 µM (inactive). Further, the GI50 with HCT-116 is > 100 µM (inactive); in the test on MOLT-4, 31.8 µM (inactive); in the test with HCT-15, 80.2 µM; in the test with CCRF-CEM it was 55 µM (inactive); with SK-MEL-5, 73.8 µM (inactive); with M14, 79.8 µM (inactive).
On to `Oc1cc(-c2c[nH]c3ccccc23)nc2cc3c(cc12)OCO3`, for which the GI50 in the test with HT-29 is > 100 µM (inactive); in the test with IGROV-1 it was 83.2 µM (inactive); with COLO 205, > 100 µM (inactive); in the test on 786-0, > 100 µM (inactive); in the test with OVCAR-4, 3.79 µM (inactive); in the test with EKVX, > 100 µM (inactive). For the same molecule, the GI50 is > 100 µM (inactive) in the test with HCT-116; > 100 µM (inactive) in the test with MOLT-4; over 100 µM in the test on HCT-15; > 100 µM (inactive) with CCRF-CEM; > 100 µM (inactive) in the test on HCC 2998; > 100 µM (inactive) in the test on SK-MEL-5. For the same molecule, the GI50 in the test on M14 was > 100 µM (inactive).
For `O=C1C2Cc3ccccc3CN2C(=O)N1CN1CCN(CN2C(=O)C3Cc4ccccc4CN3C2=O)CC1` (stereo unspecified), the GI50 in the test on HT-29, in the test on IGROV-1, in the test on COLO 205, in the test on 786-0, in the test with EKVX and with HOP-92 was > 100 µM (inactive) in each case. The GI50 in the test on CAKI-1 was > 100 µM (inactive); in the test with SK-OV-3 it was > 100 µM (inactive); in the test on MOLT-4 it was > 100 µM (inactive); in the test with HCT-15, over 100 µM; with CCRF-CEM, > 100 µM (inactive); with HCC 2998 it was > 100 µM (inactive). In addition, the GI50 with SK-MEL-5 was > 100 µM (inactive).
Turning to `CON1C(=O)C2(CCCCC2)C(=O)C12C=CC(C)CC2` (stereo unspecified), the GI50 in the test on HT-29 was 62.5 µM (inactive); with IGROV-1, > 100 µM (inactive); in the test on COLO 205, > 100 µM (inactive); in the test with 786-0, > 100 µM (inactive); in the test on EKVX, 48.2 µM (inactive); with CAKI-1, > 100 µM (inactive). Besides, the GI50 in the test on SK-OV-3 was > 100 µM (inactive); with MOLT-4, 78.9 µM (inactive); in the test on HCT-15 it was over 100 µM; in the test with CCRF-CEM, > 100 µM (inactive); in the test on HCC 2998, > 100 µM (inactive); with SK-MEL-5, 38 µM (inactive). Moreover, the GI50 in the test on M14 is > 100 µM (inactive).
As for `CC1=NN(C(=O)Cc2ccccc2)C(=O)/C1=C\C=C\c1ccccc1`, the GI50 in the test with HT-29, with COLO 205, with 786-0, with OVCAR-4, in the test with EKVX and in the test with HCT-116 was > 100 µM (inactive) each time. The GI50 with CAKI-1 was > 100 µM (inactive); in the test on MOLT-4 it was > 100 µM (inactive); in the test with HCT-15, over 100 µM; in the test on CCRF-CEM, > 100 µM (inactive); in the test with HCC 2998 it was > 100 µM (inactive); with SK-MEL-5 it was > 100 µM (inactive). The GI50 in the test with M14 is > 100 µM (inactive).
As for `C/C(=N\N(C)C)C(CN1CCCCC1)C(c1ccccc1)c1c(O)c2ccccc2oc1=O` (stereo unspecified), the GI50 with HT-29, with IGROV-1, with COLO 205, with 786-0, with OVCAR-4 and in the test with EKVX was > 100 µM (inactive) throughout. Moreover, the GI50 is > 100 µM (inactive) in the test with HCT-116; > 100 µM (inactive) with CAKI-1; 97.5 µM (inactive) with SK-OV-3; > 100 µM (inactive) in the test with MOLT-4; over 100 µM in the test on HCT-15; > 100 µM (inactive) in the test on CCRF-CEM. In addition, the GI50 in the test with SK-MEL-5 and in the test with M14 was > 100 µM (inactive) each time.
Turning to `O=C(O)CP(=S)(S)c1ccccc1` (stereo unspecified), the GI50 in the test on HT-29, in the test on COLO 205, with 786-0, with OVCAR-4, in the test on EKVX and with HOP-92 was > 100 µM (inactive) throughout. Besides, the GI50 in the test on CAKI-1, with SK-OV-3, in the test with MOLT-4, with CCRF-CEM, in the test on SK-MEL-5 and in the test with M14 was > 100 µM (inactive) each time.
Consider `CC1(C)CCc2cc3c(cc2O1)OC(C)(C)C1c2c(ccc4c2CCC(C)(C)O4)OC31` (stereo unspecified), for which the GI50 is > 100 µM (inactive) in the test with HT-29; > 100 µM (inactive) in the test with IGROV-1; > 100 µM (inactive) with COLO 205; > 100 µM (inactive) in the test on 786-0; > 100 µM (inactive) with OVCAR-4; 64.6 µM (inactive) with EKVX. For the same molecule, the GI50 is > 100 µM (inactive) in the test on HOP-92; > 100 µM (inactive) in the test on HCT-116; 99.8 µM (inactive) with CAKI-1; > 100 µM (inactive) in the test on SK-OV-3; > 100 µM (inactive) in the test on MOLT-4; over 100 µM with HCT-15. The GI50 in the test with CCRF-CEM is > 100 µM (inactive); in the test on SK-MEL-5, > 100 µM (inactive); with M14, 42.9 µM (inactive).
With `C1=CC=C2NCCOCC/N=C3/C=CC=CC=C3NCCOCC/N=C\2C=C1`, the GI50 was 15.7 µM (inactive) with HT-29; > 100 µM (inactive) in the test with IGROV-1; 45 µM (inactive) in the test with COLO 205; > 100 µM (inactive) with 786-0; 59.2 µM (inactive) in the test with OVCAR-4; > 100 µM (inactive) with EKVX. Further, the GI50 with HCT-116 was 28.4 µM (inactive); in the test on CAKI-1, > 100 µM (inactive); in the test with SK-OV-3, > 100 µM (inactive); in the test on MOLT-4, 44.9 µM (inactive); in the test on HCT-15 it was 41.3 µM; with CCRF-CEM, 40 µM (inactive). The GI50 was 67.1 µM (inactive) in the test with HCC 2998, 48.6 µM (inactive) in the test with SK-MEL-5 and 17.8 µM (inactive) in the test on M14.
